Measurements taken from patent US8613909B2, “Cinnamic acid-based oligomers and uses thereof” (Virginia Commonwealth University, priority 2008, dated 2013).

Legend:
[1] = test system: NFκB in Calu-3 human bronchial epithelial cells; assay: TNFα-dependent NFκB-Luc reporter repression in Calu-3 cells; type: cell-based
Procedure: Anti-inflammatory activity of each of the oligomers was determined using Calu-3 human bronchial epithelial cells (American Type Culture Collection; ATCC), from repression of the inflammatory transcription factor NFκB. The Calu-3 cells of 0.5×10^6 cells/cm^2 in 12-well plates were cultured for 24 h and then, transfected with 0.6 μg luciferase (Luc)-tagged reporter plasmid construct of NFκB (pNFκB-Luc) for another 24 h using the Effectene reagents (Qiagen) under the protocol optimized in-house. On day 3, the transfected Calu-3 cells were stimulated for 6 h with 30 ng/ml human tumor necrosis factor α (TNF α; BD Biosciences) in the presence of each oligomer at 0-100 μM in culture. Then, the Calu-3 cells were lysed, after which the Luc activities were measured using 20/20n luminometer (Turner BioSystems). The cellular NFκB-Luc activity was expressed in relative light unit/mg protein, normalized by the total protein measured by the BCA assay (Pierce Biotechnology). A fold-induction of such a normalized NFκB-Luc activity relative to the transfection control was derived for treatment group comparison; this accommodated inter-transfection efficiency differences.

[2] = Chemical antioxidant assay (ABTS oxidation by metmyoglobin/hydrogen peroxide); conditions: room temperature, absorbance at 750 nm in first 5 min; read-out: AOC50 (half maximal anti-oxidative concentration)
Procedure: Anti-oxidative activity of the oligomers was determined at room temperature using the chemical antioxidant assay kit (Cayman Chemical Co.) in a 96-well plate format, in accord with the manufacturer's protocol. The kit has been validated in-house with respect to assay precision and accuracy. Oxidative reaction of ABTS (2,2′-azino-di-[3-ethylbenzthiazoline sulphonate]) to its oxidative product, ABTS•+, by metmyoglobin and 84 μM hydrogen peroxide were monitored for 20 min in the presence of each oligomer at 0-100 μM. The absorbance at 750 nm due to ABTS•+ generation was measured using the microplate reader. Initial linear rate of oxidation was assessed with the absorbance produced for the first 5 min. The half maximal anti-oxidative concentration (AOC50) values were derived, assuming the sigmoidal concentration-dependence of the initial oxidation rate in the logistic function equation.

EC50 [2]	Structure (SMILES)	repression of NFκB-Luc activity ([1]; by 100 μM)	repression of TNFα-induced NFκB-Luc activity ([1]; 5 μM)
16.8 ± 1.6 µM	O=C(O)/C=C/c1ccc(O)c(O)c1 [CA, caffeic acid]	no appreciable repression	–
–	CCC(=O)O[C@]1(C(=O)SCF)[C@H](C)C[C@H]2[C@@H]3C[C@H](F)C4=CC(=O)C=C[C@]4(C)[C@@]3(F)[C@@H](O)C[C@@]21C [FP, fluticasone propionate]	–	100%
